Results published in article PMC4599284, “Redox effects and cytotoxic profiles of MJ25 and auranofin towards malignant melanoma cells” (Oncotarget, 2015).

Experiments:
[1] = target: T1, thioredoxin reductase 1 (TrxR1) (Rattus norvegicus, UniProt O89049); experiment: NADPH-dependent DTNB reduction assay with purified enzyme; irreversibility tested by desalting; format: biochemical
T1 construct: gene Txnrd1; recombinant selenocysteine-containing rat TrxR1
T1 sequence (O89049 1-499): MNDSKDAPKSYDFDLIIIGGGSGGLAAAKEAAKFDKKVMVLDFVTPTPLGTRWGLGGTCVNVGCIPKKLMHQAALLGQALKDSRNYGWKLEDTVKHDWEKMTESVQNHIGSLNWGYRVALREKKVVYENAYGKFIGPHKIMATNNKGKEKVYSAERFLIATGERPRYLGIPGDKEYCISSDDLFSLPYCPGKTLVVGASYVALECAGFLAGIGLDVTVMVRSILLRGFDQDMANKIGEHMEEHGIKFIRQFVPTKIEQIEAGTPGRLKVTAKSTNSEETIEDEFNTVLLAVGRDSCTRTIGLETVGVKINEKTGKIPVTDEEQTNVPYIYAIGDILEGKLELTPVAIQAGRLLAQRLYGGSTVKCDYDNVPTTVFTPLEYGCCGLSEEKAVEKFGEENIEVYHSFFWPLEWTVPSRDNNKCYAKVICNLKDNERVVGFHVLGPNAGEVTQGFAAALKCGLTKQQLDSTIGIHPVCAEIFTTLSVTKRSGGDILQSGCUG

[2] = target: T1, thioredoxin reductase 1 (TrxR1); experiment: NADPH-dependent juglone reduction by purified enzyme, NADPH consumption at […] nm; format: biochemical

Compound | NADPH-dependent DTNB reduction assay with purified enzyme; irreversibility teste [1] | NADPH-dependent juglone reduction by purified enzyme, NADPH consumption at 340 n [2]
O=S(=O)(CCSc1nc2ccccc2o1)c1nc2ccccc2s1 [MJ25, 2-{[2-(1,3-benzothiazol-2-ylsulfonyl)ethyl]thio}-1,3-benzoxazole] | we also confirmed that repurchased MJ25 inhibited recombinant TrxR1 (Figure 4a) | 
CC[P](CC)(CC)=[Au][S][C@@H]1O[C@H](COC(C)=O)[C@@H](OC(C)=O)[C@H](OC(C)=O)[C@H]1OC(C)=O [auranofin] | Both MJ25 and auranofin were found to inhibit TrxR1 irreversibly. | 
O=C1C=CC(=O)c2c(O)cccc21 [juglone, 5-hydroxy-1,4-naphthoquinone] |  | using juglone as a Sec-independent substrate and the DTNB assay as a Sec-dependent activity control
